Assay results published in ChEMBL document CHEMBL1133025, “The utilization of a unified pharmacophore query in the discovery of new antagonists of the adenosine receptor family” (Bioorg Med Chem Lett, 2000).

Assays:
[1] = biological target: T1, Adenosine receptor A3 (Homo sapiens) (UniProt P0DMS8); test: In vitro inhibitory activity against human Adenosine A3 receptor at 10e-5 M
T1 sequence (whole entry): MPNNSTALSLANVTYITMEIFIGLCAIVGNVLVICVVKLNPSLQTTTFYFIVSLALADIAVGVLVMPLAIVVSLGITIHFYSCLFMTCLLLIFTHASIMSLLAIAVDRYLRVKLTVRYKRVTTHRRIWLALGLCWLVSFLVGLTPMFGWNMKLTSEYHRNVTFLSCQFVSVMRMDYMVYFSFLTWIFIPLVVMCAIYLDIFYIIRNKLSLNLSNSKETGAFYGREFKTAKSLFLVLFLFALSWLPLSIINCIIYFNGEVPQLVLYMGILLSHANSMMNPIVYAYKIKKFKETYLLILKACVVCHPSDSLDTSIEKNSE

Adenosine receptor A3 [2] = biological target: T2, Adenosine receptor A3 (Homo sapiens, UniProt P0DMS8); test: Inhibition of [35S]GTP-gamma-S, binding stimulated by 20 uM 5''-N-ethyluronamidoadenosine (NECA) in membranes of HEK293 cells expressing human Adenosine A3 receptor; type: functional, cell membranes
T2 sequence (P0DMS8 whole entry): T1 sequence (whole entry)

Adenosine receptor A3 [3] = biological target: T2, Adenosine receptor A3; test: In vitro binding affinity against human Adenosine A3 receptor
Adenosine receptor A3 [4] = biological target: T2, Adenosine receptor A3; test: Inhibition of [35S]GTP-gamma-S, binding stimulated by 5 uM 5''-N-ethyluronamidoadenosine (NECA) in membranes of HEK293 cells expressing human Adenosine A3 receptor; type: functional, cell membranes

SMILES: Cc1ccc(N(CC(=O)N/N=C/c2ccccc2O)S(=O)(=O)c2ccccc2)cc1
- inhibition [1]: 65%

SMILES: CCOC(=O)c1c(NC(=O)Cc2ccccc2)sc2c1CCN(C(=O)OCC)C2
- IC50 (Adenosine receptor A3 [2]): 186 nM
- Ki (Adenosine receptor A3 [3]): 600 nM

SMILES: COc1ccc(N(CC(=O)Nc2cccc(Cl)c2C)S(=O)(=O)c2ccccc2)cc1
- inhibition [1]: 65%

SMILES: O=C(NCCc1c[nH]c2ccc(OCc3ccccc3)cc12)c1ccco1
- inhibition [1]: 70%

SMILES: CC(NC(=O)OCc1ccccc1)C(=O)Oc1cc(O)c2c(=O)cc(-c3ccccc3)oc2c1 (stereo unspecified)
- inhibition [1]: 60%

SMILES: CCOC(=O)CNC(c1ccccc1)c1cc(Br)ccc1NC(=O)c1ccccc1 (stereo unspecified)
- IC50 (Adenosine receptor A3 [4]): 407 nM
- Ki (Adenosine receptor A3 [3]): 3100 nM

SMILES: CCSc1nnc2c(n1)OC(c1ccc(-c3ccc(Cl)cc3)o1)Nc1ccccc1-2 (stereo unspecified)
- inhibition [1]: 60%

SMILES: COc1ccc(-c2csc(NC3OC(=O)c4c3ccc(OC)c4OC)n2)cc1 (stereo unspecified)
- IC50 (Adenosine receptor A3 [2]): 255 nM
- Ki (Adenosine receptor A3 [3]): 1300 nM
